In one series the test system is Staphylococcus aureus. The series is described as follows: Antimicrobial activity against Staphylococcus aureus ATCC 25923 after 24 hrs by agar dilution method. It counts as functional.
The subject of another series is Enterococcus faecalis. The series is described as follows: Antimicrobial activity against Enterococcus faecalis ATCC 29212 after 24 hrs by agar dilution method. It counts as functional, organism-based. A general note: Agar dilution tests growth on a series of plates holding different concentrations.
For another series, the system named is Listeria monocytogenes. Description: Antimicrobial activity against Listeria monocytogenes ATCC 43251 after 24 hrs by agar dilution method. It counts as functional, organism-based.
A further series has as its system Bacillus cereus. The series is described as follows: Antimicrobial activity against Bacillus cereus 709 Roma after 24 hrs by agar dilution method. It counts as functional.
For series [1], the system named is Mycolicibacterium smegmatis. Description: Antimicrobial activity against Mycobacterium smegmatis ATCC 607 after 24 hrs by agar dilution method. It counts as functional.
The test system of the next series is Candida albicans. Description: Antimicrobial activity against Candida albicans ATCC 60193 after 24 hrs by agar dilution method. It counts as functional, organism-based.
Another series deals with Saccharomyces cerevisiae. The series is described as follows: Antimicrobial activity against Saccharomyces cerevisiae RSKK 251 after 24 hrs by agar dilution method. It counts as functional, organism-based.
The nature of series [2]: Antioxidant activity assessed as DPPH scavenging activity at 200 ug/ml after 60 mins by spectrophotometry. It counts as physicochemical. The conditions noted are these: 1 h. On the technique in general: The DPPH test is a chemical assay of radical scavenging.
Series [3] can be described thus: Antioxidant activity assessed as trolox equivalent of ferric ion reducing activity using fe3+-TPTZ at 200 ug/ml by FRAP assay. It counts as physicochemical.
In a further series the test system is Escherichia coli. The series is described as follows: Antimicrobial activity against Escherichia coli ATCC 25922 after 24 hrs by agar dilution method. It counts as functional, organism-based.
The next series concerns Pseudomonas aeruginosa. The series is described as follows: Antimicrobial activity against Pseudomonas aeruginosa ATCC 10145 after 24 hrs by agar dilution method. It counts as functional, organism-based.
The subject of series [4] is Yersinia pseudotuberculosis. The conditions noted are these: ATCC 911.

In brackets after ≈: the same amount, converted by molar mass. Activity calls are given as the source filed them. The calls are words filed in the database; no cut-off is given here.

As for `Nn1c(Cc2cccs2)nn(CC(=O)N/N=C/c2ccco2)c1=O`, the MIC entry (in the series on Staphylococcus aureus; in the series on Enterococcus faecalis; in the series on Listeria monocytogenes; in the series with Bacillus cereus; in [1]; in the series with Candida albicans) was “inactive” throughout. In addition, the MIC entry (in the series with Saccharomyces cerevisiae; in the series with Escherichia coli; in the series with Pseudomonas aeruginosa; in series [4]) was “inactive” throughout. Also, the Activity amounted to 9.7% in series [2] and 10 µM in [3].
In the case of `Cc1ccc(-n2c(S)nnc2Cn2nc(Cc3cccs3)n(N)c2=O)cc1`, the MIC result (in the series with Staphylococcus aureus; in the series on Enterococcus faecalis; with Listeria monocytogenes; with Bacillus cereus; in [1]; in the series with Candida albicans) was “inactive” each time. Also, the MIC entry (with Saccharomyces cerevisiae; in the series with Escherichia coli; with Pseudomonas aeruginosa; in series [4]) was “inactive” each time. Besides, the Activity is 23.9% in series [2] and 54 µM in series [3].
For the compound `COc1ccc(/C=N/NC(=O)Cn2nc(Cc3cccs3)n(/N=C/c3ccc(OC)cc3)c2=O)cc1`, the MIC result (in the series with Staphylococcus aureus; in the series with Enterococcus faecalis; in the series on Listeria monocytogenes; with Bacillus cereus; in series [1]; with Candida albicans) was “inactive” in each case. Also, the MIC result (in the series with Saccharomyces cerevisiae; in the series with Escherichia coli; in the series with Pseudomonas aeruginosa; in series [4]) was “inactive” each time. Further, the Activity in series [3] amounted to 54 µM.
`Nn1c(Cc2cccs2)nn(CC(=O)N/N=C/c2cccs2)c1=O`: the MIC result (with Staphylococcus aureus; with Enterococcus faecalis; in the series with Listeria monocytogenes; with Bacillus cereus; in series [1]; in the series with Candida albicans) was “inactive” in each case. Moreover, the MIC entry (in the series with Saccharomyces cerevisiae; with Escherichia coli; in the series on Pseudomonas aeruginosa; in [4]) was “inactive” each time. The Activity in series [3] was determined as 36 µM.
With `O=C(Cn1nc(Cc2cccs2)n(/N=C/c2cccnc2)c1=O)N/N=C/c1cccnc1`, the MIC entry (in the series on Staphylococcus aureus; in the series with Enterococcus faecalis; in the series on Listeria monocytogenes; in the series with Bacillus cereus; in [1]; in the series with Candida albicans) was “inactive” throughout. The MIC result (in the series with Saccharomyces cerevisiae; in the series with Escherichia coli; in the series with Pseudomonas aeruginosa; in series [4]) was “inactive” in each case. In addition, in [3], the Activity came out at 16 µM.
As to `Nn1c(Cc2cccs2)nn(CC(=O)N/N=C/c2ccccc2)c1=O`, the MIC entry (in the series with Staphylococcus aureus; in the series on Enterococcus faecalis; with Listeria monocytogenes; in the series with Bacillus cereus; in series [1]; with Candida albicans) was “inactive” in each case. Also, the MIC entry (in the series on Saccharomyces cerevisiae; with Escherichia coli; in the series on Pseudomonas aeruginosa; in series [4]) was “inactive” each time. Also, the Activity in series [3] is 40 µM.
Turning to `O=C(Cn1nc(Cc2cccs2)n(/N=C/c2ccccc2)c1=O)N/N=C/c1ccccc1`, the MIC entry (in the series on Staphylococcus aureus; in the series with Enterococcus faecalis; in the series on Listeria monocytogenes; with Bacillus cereus; in series [1]; with Candida albicans) was “inactive” throughout. Moreover, the MIC result (with Saccharomyces cerevisiae; in the series on Escherichia coli; in the series on Pseudomonas aeruginosa; in series [4]) was “inactive” each time. Further, in series [3], the Activity came to 35 µM.
As to `Nn1c(Cc2cccs2)nn(Cc2nnc(S)n2-c2ccc(F)cc2)c1=O`, the MIC entry (in the series with Staphylococcus aureus; with Enterococcus faecalis; in the series with Listeria monocytogenes; with Bacillus cereus; in series [1]; in the series on Candida albicans) was “inactive” in each case. For the same compound, the MIC entry (in the series with Saccharomyces cerevisiae; in the series with Escherichia coli; in the series on Pseudomonas aeruginosa; in series [4]) was “inactive” in each case. In addition, the figures for the Activity in series [2] and in series [3] were 31.7% and 39 µM, respectively.
As to `Nn1c(Cc2cccs2)nn(CC(=O)N/N=C/c2cccnc2)c1=O`, the MIC result (in the series on Staphylococcus aureus; in the series on Enterococcus faecalis; in the series with Listeria monocytogenes; in the series on Bacillus cereus; in [1]; in the series with Candida albicans) was “inactive” throughout. Besides, the MIC entry (with Saccharomyces cerevisiae; with Escherichia coli; in the series with Pseudomonas aeruginosa; in [4]) was “inactive” each time. The Activity in series [3] turned out to be 26 µM.
In the case of `O=C(Cn1nc(Cc2cccs2)n(/N=C/c2ccco2)c1=O)N/N=C/c1ccco1`, the MIC result (in the series on Staphylococcus aureus; in the series with Enterococcus faecalis; in the series with Listeria monocytogenes; with Bacillus cereus; in [1]; in the series with Candida albicans) was “inactive” throughout. Further, the MIC entry (in the series on Saccharomyces cerevisiae; in the series with Escherichia coli; with Pseudomonas aeruginosa; in series [4]) was “inactive” in each case. The Activity in series [2] was 30.9%; in [3], 79 µM.
`OC(Cn1cncn1)(Cn1cncn1)c1ccc(F)cc1F`: the MIC result in the series on Candida albicans and in the series on Saccharomyces cerevisiae was “Active” in each case.
On to `O=C(Cn1nc(Cc2cccs2)n(/N=C/c2cccs2)c1=O)N/N=C/c1cccs1`, for which the MIC entry (with Staphylococcus aureus; in the series with Enterococcus faecalis; with Listeria monocytogenes; with Bacillus cereus; in series [1]; in the series with Candida albicans) was “inactive” throughout. For the same compound, the MIC entry (with Saccharomyces cerevisiae; with Escherichia coli; in the series with Pseudomonas aeruginosa; in series [4]) was “inactive” throughout. Also, the Activity in series [3] turned out to be 27 µM.
As to `NNC(=O)Cn1nc(Cc2cccs2)n(N)c1=O`, the MIC result with Staphylococcus aureus, in the series with Enterococcus faecalis, with Listeria monocytogenes, in the series on Bacillus cereus, in the series on Candida albicans and in the series with Saccharomyces cerevisiae was “inactive” throughout. In addition, the MIC entry (in the series on Escherichia coli; in the series with Pseudomonas aeruginosa; in series [4]) was “inactive” throughout. In series [1] (ATCC 607, 24 h), it took 994 µg/mL (≈ 3.7 mM) to inhibit growth (MIC). Also, the Activity in series [2] is 1.9%; in series [3], 1368 µM.
For `Nn1c(Cc2cccs2)nn(Cc2nnc(S)n2-c2ccccc2)c1=O`, the MIC entry (with Staphylococcus aureus; in the series with Enterococcus faecalis; in the series on Listeria monocytogenes; in the series on Bacillus cereus; in series [1]; in the series with Candida albicans) was “inactive” throughout. In addition, the MIC entry (with Saccharomyces cerevisiae; in the series with Escherichia coli; in the series on Pseudomonas aeruginosa; in series [4]) was “inactive” each time. Moreover, the figures for the Activity in series [2] and in series [3] were 62.7% and 11 µM, respectively.
Regarding `CCOC(=O)Cn1nc(Cc2cccs2)n(N)c1=O`, the MIC result in the series on Staphylococcus aureus, in the series with Enterococcus faecalis, in the series on Listeria monocytogenes, in the series on Bacillus cereus, with Candida albicans and with Saccharomyces cerevisiae was “inactive” in each case. The MIC entry (in the series on Escherichia coli; in the series with Pseudomonas aeruginosa; in series [4]) was “inactive” in each case. Besides, the MIC in [1] (ATCC 607, 24 h) came to 994 µg/mL (≈ 3.52 mM). Moreover, the Activity in series [2] turned out to be 10%; in [3], 14 µM.
As for `COc1ccc(/C=N/NC(=O)Cn2nc(Cc3cccs3)n(N)c2=O)cc1`, the MIC result (in the series on Staphylococcus aureus; in the series with Enterococcus faecalis; in the series with Listeria monocytogenes; with Bacillus cereus; in series [1]; with Candida albicans) was “inactive” in each case. Besides, the MIC entry (in the series with Saccharomyces cerevisiae; in the series on Escherichia coli; in the series on Pseudomonas aeruginosa; in series [4]) was “inactive” in each case. Further, the Activity in [3] was found to be 87 µM.
In the case of `CC1(C)S[C@@H]2[C@H](NC(=O)[C@H](N)c3ccccc3)C(=O)N2[C@H]1C(=O)O`, the MIC entry (in the series with Staphylococcus aureus; in the series on Enterococcus faecalis; in the series with Listeria monocytogenes; with Bacillus cereus; in [1]; in the series with Escherichia coli) was “Active” throughout. The MIC result (with Pseudomonas aeruginosa; in series [4]) was “Active” throughout.

By MIC is commonly meant the least concentration at which growth counts as inhibited.
